Test results: patent US5281710A, “Dynemicin analogs: synthesis, methods of preparation and use” (The Scripps Research Institute, priority 1992, dated 1994)
pIC50: −log10 of the molar value.

Tests used:
[1] = system: Capan-1 pancreatic carcinoma cells; assay: Sulforhodamine B cytotoxicity, Capan-1; format: cell-based; details: Homo sapiens, CAPAN-1, Capan-1; read-out: IC50
Method: (§1) In addition to the screening already discussed, several of the before-described compounds and chimeras were screened against several or all of a panel of ten to twenty-five cancerous cell lines as target cells and seven "normal" cell preparations. This screening utilized a sulforhodamine B cytotoxidity assay as discussed below.
(§2) IC50 values; i.e., the concentration of Compound required to kill one-half of the treated cells, were then calculated.

[2] = system: HL-60 promyeocytic leukemia cells; assay: Sulforhodamine B cytotoxicity, HL-60; format: cell-based; details: Homo sapiens, HL-60, HL-60; read-out: IC50
Method: as §1, §2

M-21 melanoma cells [3] = assay: Inhibition of [3H]leucine uptake (protein synthesis) in M-21 cells; format: cell-based, human; details: 72 hours incubation
Method: (§3) These determinations were made by standard tissue growth procedures using RPMI tissue culture medium supplemented with 10 percent fetal bovine serum plated at 10^4 cells in 100 μl of medium in 96-well tissue culture plates. The cells were permitted to adhere for 24 hours, and the dilutions of Compound 153 were added in 10 μl volumes and incubated for 72 hours at 37° C. in a humidified atmosphere containing five percent CO2. The plates were then washed three times with tissue culture medium and again incubated for 24 hours, as above. Each well received 1 μCi of ^3 H-labeled substrate, and after an additional 16 hours of incubation, cells were collected on glass fiber filters with a Skatron cell harvester. Finally, the filters were placed in Ecolume scintillation cocktail (ICN, Irvine, Calif.), and radioactivity was measured with a Beckeman scintillation counter. Incorporation of the ^3 H label was calculated as a percentage of untreated controls.

TCAF cell line = assay: Cytotoxicity, TCAF; format: cell-based
Method: as §1, §2

[4] = system: tumor cells and "normal" cells; assay: Relative activity against tumor cells and normal cells; format: cell-based
Source text: In contrast, 100 percent of normal human mammary epithelial cells (HMEC) were viable at the same concentration.

[5] = system: H-322 lung carcinoma cells; assay: Sulforhodamine B cytotoxicity, H-322; format: cell-based; details: NCI-H322; H-322; read-out: IC50
Method: as §1, §2

M-21 melanoma cells [6] = assay: Inhibition of [3H]thymidine uptake (DNA synthesis) in M-21 cells; format: cell-based, human; details: 72 hours incubation
Method: as §3

[7] = system: SK-Mel-28, M-14, M-21, Capan-1, Ovcar-3, Ovcar-4, UCLA-P-3, U-87, U-251 and Molt-4 cell lines; format: cell-based; details: ten tumor cell lines
Method: In other studies, IC50 values were determined for the anti-tumor agents dynemicin A, calicheamicin γ1^I, taxol, vinblastine/vincristine, doxorubicin, actinomycin D and bleomycin sulfate against the SK-Mel-28, M-14, M-21, Capan-1, Ovcar-3, Ovcar-4, UCLA-P-3, U-87, U-251 and Molt-4 cell lines.

M-21 melanoma cells [8] = assay: Sulforhodamine B cytotoxicity, M-21; format: cell-based; details: Homo sapiens, M21
Method: as §1, §2
UCLA M-21 Institute, and originally obtained from […]

U-251 MG glioma cells = assay: Sulforhodamine B cytotoxicity, U-251; format: cell-based; details: Homo sapiens
Method: as §1, §2

[9] = system: Ovcar-3 ovarian carcinoma cells; assay: Sulforhodamine B cytotoxicity, Ovcar-3; format: cell-based; details: Homo sapiens, OVCAR-3, Ovcar-3; read-out: IC50
Method: as §1, §2

H-522 lung cells = assay: Sulforhodamine B cytotoxicity, H-522; format: cell-based; details: Homo sapiens, NCI-H522
Method: as §1, §2

[10] = system: multiple-drug resistant TCAF-DAX cell line; assay: Cytotoxicity, TCAF-DAX; format: cell-based
Method: as §1, §2

RPMI-8226 cells = assay: Sulforhodamine B cytotoxicity, RPMI-8226; format: cell-based; details: Homo sapiens
Method: as §1, §2

Chemical stability = format: physicochemical
[11] = system: L-1210 mouse lymphoma cells; assay: Sulforhodamine B cytotoxicity, L-1210; format: cell-based; details: L1210
Method: as §1, §2

[12] = system: DNA in Molt-4 leukemia cells; assay: DNA strand breakage in Molt-4 cells (ethidium bromide fluorimetry); format: cell-based
Method: In another study, Molt-4 leukemia cells were treated with ethidium bromide, which led to uptake by DNA through intercalcation and consequent fluorescence. Exposure of those cells to Compound 153 (10 μM at 10^7 cells/ml) led to rapid DNA strand breakage as determined by fluorimetry, resulting in 95 percent destruction after four hours at 37° C. […] These observations implicate DNA strand cleavage as the direct cause of cell destruction in these studies.

U-87 UG astocytoma cells = assay: Sulforhodamine B cytotoxicity, U-87; format: cell-based
Method: as §1, §2

φX174 Form I DNA = assay: φX174 supercoiled DNA cleavage, agarose gel; format: biochemical
[13] = system: EMT6 mammary tumor in Balb/c BYJ mice; assay: In vivo EMT6 mammary tumor in Balb/c BYJ mice; set-up: species or system mouse; details: 10 mg/kg on days 1, 5 and 9
Method: The data of FIG. 10 illustrate a further in vivo study using compound 153. Here, groups of 6-10 week old, female Balb/c BYJ mice (obtained from The Scripps Research Institute breeding colony, La Jolla, Calif.) (8 per group) were inoculated with 5×10^5 cells of the EMT6 tumor cell line, a mammary tumor. The mice were then treated with normal saline (control) or normal saline containing 10 mg/kg of Compound 153 (study) on days 1, 5 and 9 after the inoculation.

[14] = system: P-388 mouse lymphoma cells; assay: Sulforhodamine B cytotoxicity, P-388; format: cell-based; details: Mus musculus, P388; P-388; read-out: IC50
Method: as §1, §2

H-358 lung cells = assay: Sulforhodamine B cytotoxicity, H-358; format: cell-based; details: Homo sapiens, NCI-H358
Method: as §1, §2

With `O=C(OCCS(=O)(=O)c1ccccc1)N1c2ccc(OCCO)cc2C23OC24CCCC3C#C/C=C\C#CC14` (centres unmarked) [Compound 153] the pIC50 [1] was 8.41, the pIC50 [2] was 10.44 and the “inhibition of [3H]leucine uptake (protein synthesis)” value (M-21 melanoma cells [3]) was “severely impair”. For the same molecule, the pIC50 (TCAF cell line) was 8.96, the “selectivity between normal and cancer cells (qualitative)” value [4] was “relative selectivity for tumor cell lines as opposed to normal, untransformed cells” and the “times more active against tumor cells than against normal cells” value ([4]; except for the three melanoma cell lines) was 10^1 -10^8 times. The pIC50 [5] was 6.41, the “inhibition of [3H]thymidine uptake (DNA synthesis)” value (M-21 melanoma cells [6]) was “severely impair the ability of M-21 melanoma cells to synthesize DNA” and the “relative potency among agents across cell lines” value [7] was “comparable to most of the other agents against the other cell lines”. For the same molecule, the pIC50 (M-21 melanoma cells [8]) was 5.80, the pIC50 (U-251 MG glioma cells) was 6.41 and the pIC50 [9] was 6.11. It also gave a pIC50 (H-522 lung cells) of 7.01, a pIC50 [10] of 8.77 and a pIC50 (RPMI-8226 cells) of 8.11. For the same molecule, the chemical stability (Chemical stability) was “decompose cleanly to form phenyl vinyl sulfone and the corresponding free amine enediyne Compound 153a”, the time remaining intact (Chemical stability; pH 7.0 phosphate buffer (100 mM), 37° C.) was at least 1.5 h and the pIC50 [11] was 8.89. The “DNA strand breakage (destruction)” value ([12]; 10 μM at 10^7 cells/ml, four hours at 37° C.) was 95%, the “delay of cell death relative to DNA strand breakage” value ([12]; 10 μM, Molt-4 cells) was “two” and the pIC50 (U-87 UG astocytoma cells) was 6.11. The DNA cleavage (φX174 Form I DNA; 1.0 mM, 24 hours, acidic pH) was “no DNA cleavage activity”, the DNA cleavage (φX174 Form I DNA; 1.0 mM, 24 hours, pH 7.0 and higher) was “some DNA cleavage activity” and the DNA cleavage (φX174 Form I DNA; pH 8.5, 24 or 48 hours, 37° C.) was “strong DNA cleavage activity”. For the same molecule, the “tumor growth of treated tumors” value [13] was “much slower, and almost linear”, the “tumor volume vs control” value ([13]; day 8) was “slight difference in the average volume of the tumors, with the study group having a lower tumor burden” and the “control group's average tumor volume relative to study group” value ([13]; day 20) was “about seven”. For the same molecule, the pIC50 [14] was 8.34 and the pIC50 (H-358 lung cells) was 6.70.
